{"source": "patent US20230346670A1", "about": "“Prebiotic Oral Care Compositions and Methods” (Colgate-Palmolive Company, priority 2020, published 2023)", "format_in_all_cases": "cell-based", "key": {"A. actinomycetemcomitans": {"test_system": "A. actinomycetemcomitans", "experiment": "Multi-species biofilm composition, absolute abundance (Geq/mL)", "conditions": "repeated rinsing", "method": "(§1) Biofilms are grown vertically on Calcium Deficient Hydroxyapatite (CAD-HA) disks (Hitemco Medical, Old Bethpage, USA) using the Amsterdam Active Adhesion model. Biofilms are allowed to establish during 24 h (37° C., 170 rpm) under microaerophilic conditions (6% O2, 7% CO2, 7% H2, 80% N2). After this 24 h, disks are rinsed 3 times a day for 3 minutes (RT, 250 rpm), for 3 consecutive days, by transferring the lid containing the disks to a new 24-well plate containing 2 mL/well of the appropriate substrate solution. As a negative control, PBS (pH 5.7) without substrate supplementation is used.\n(§2) N-acetyl-D-glucosamine (NADG), α-D-lactose, D-(+)-trehalose and D-(+)-raffinose are selected to determine their effects on multi-species biofilm composition. Repeated rinsing of the biofilms with the substrates at a concentration of 1 M results in a significant decrease in absolute numbers in at least four of the pathogenic bacterial species tested in the assay, in comparison to the control, the results of which are described in Table 1 below. Note, NADG decreased absolute numbers of S. sobrinus. Absolute abundances of bacterial species are shown as mean ± SD (n = 3) logarithmic values of the genome equivalents per millilitre (log(Geq/mL))."}, "A. naeslundii": {"test_system": "A. naeslundii", "experiment": "Multi-species biofilm composition, absolute abundance (Geq/mL)", "conditions": "repeated rinsing", "method": "as §1, §2"}, "P. gingivalis": {"test_system": "P. gingivalis", "experiment": "Multi-species biofilm composition, absolute abundance (Geq/mL)", "conditions": "repeated rinsing", "method": "as §1, §2"}, "P. intermedia": {"test_system": "P. intermedia", "experiment": "Multi-species biofilm composition, absolute abundance (Geq/mL)", "conditions": "repeated rinsing", "method": "as §1, §2"}, "S. gordonii": {"test_system": "S. gordonii", "experiment": "Multi-species biofilm composition, absolute abundance (Geq/mL)", "conditions": "repeated rinsing", "method": "as §1, §2"}, "S. mitis": {"test_system": "S. mitis", "experiment": "Multi-species biofilm composition, absolute abundance (Geq/mL)", "conditions": "repeated rinsing", "method": "as §1, §2"}, "S. oralis": {"test_system": "S. oralis", "experiment": "Multi-species biofilm composition, absolute abundance (Geq/mL)", "conditions": "repeated rinsing", "method": "as §1, §2"}, "S. sobrinus": {"test_system": "S. sobrinus", "experiment": "Multi-species biofilm composition, absolute abundance (Geq/mL)", "conditions": "repeated rinsing", "method": "as §1, §2"}, "[1]": {"test_system": "multi-species biofilm (beneficial/commensal species, periodontal pathogens, cariogenic pathogens)", "experiment": "Multi-species biofilm composition, relative proportions and group changes", "method": "Biofilms are grown vertically on Calcium Deficient Hydroxyapatite (CAD-HA) disks (Hitemco Medical, Old Bethpage, USA) using the Amsterdam Active Adhesion model. […] After this 24 h, disks are rinsed 3 times a day for 3 minutes (RT, 250 rpm), for 3 consecutive days, by transferring the lid containing the disks to a new 24-well plate containing 2 mL/well of the appropriate substrate solution. As a negative control, PBS (pH 5.7) without substrate supplementation is used. N-acetyl-D-glucosamine (NADG), α-D-lactose, D-(+)-trehalose and D-(+)-raffinose are selected to determine their effects on multi-species biofilm composition. Repeated rinsing of the biofilms with the substrates at a concentration of 1 M results in a significant decrease in absolute numbers in at least four of the pathogenic bacterial species tested in the assay, in comparison to the control, the results of which are described in Table 1 below. Note, NADG decreased absolute numbers of S. sobrinus. Absolute abundances of bacterial species are shown as mean ± SD (n = 3) logarithmic values of the genome equivalents per millilitre (log(Geq/mL))."}, "[2]": {"test_system": "P. intermedia virulence genes", "experiment": "Virulence gene expression in multi-species biofilm (SYBR RT-qPCR)", "conditions": "relative to control = 1", "method": "as §1\nThe virulence of the substrate-treated multi-species biofilms are evaluated by analyzing the relative expression of 33 genes that are recognized as being related to some form of virulence and from 4 periodontal pathogens.\nExpression of bacterial virulence genes is analyzed through SYBR RT-qPCR and normalized for bacterial housekeeping gene expression. […] These effects are illustrated in Tables 6a and 6b:\nNote, for Table 6d, fold changes in virulence gene expression are determined relatively to the control condition through the 2^^-ΔΔCt method and are shown as the geometric mean (C.I.) (n = 3) of the 2^^-ΔΔCt values. All substrates are dissolved in PBS at a concentration of 1 M (upper part) or 1%(w/v) (lower part). Values between 0 and 1 represent relative downregulation, values >1 represent relative upregulation. […] NADG: N-acetyl-D-glucosamine; C.I.: 95% confidence interval."}, "[3]": {"conditions": "Table 1a, substrate 1 M, listed as α-D-lactose"}, "[4]": {"conditions": "Table 3, separate experiments, concentration not given"}, "[5]": {"conditions": "lower part of Table 6d, head prints 1 M (lower part 1%(w/v))"}, "[6]": {"conditions": "upper part of Table 6d, substrate 1 M, n = 3"}}, "data": [{"compound": "OC[C@H]1O[C@@H](O[C@H]2[C@H](O)[C@@H](O)[C@@H](O)O[C@@H]2CO)[C@H](O)[C@@H](O)[C@H]1O", "note": "[D-lactose, α-D-lactose]", "values": [{"measurement": "absolute abundance of A. actinomycetemcomitans (Aa), mean ± SD log (Geq/mL)", "setting": "A. actinomycetemcomitans; substrate 1% (w/v)", "value": "9.44 ± 0.41 log (Geq/mL)"}, {"measurement": "absolute abundance of A. actinomycetemcomitans (Aa), mean ± SD log (Geq/mL)", "setting": "A. actinomycetemcomitans; substrate 1 M in PBS, n = 3", "value": "7.87 ± 0.04^∗ log (Geq/mL)"}, {"measurement": "absolute abundance of A. naeslundii (An), mean ± SD log (Geq/mL)", "setting": "A. naeslundii; substrate 1% (w/v)", "value": "7.75 ± 0.24 log (Geq/mL)"}, {"measurement": "absolute abundance of A. naeslundii (An), mean ± SD log (Geq/mL)", "setting": "A. naeslundii; substrate 1 M in PBS, n = 3", "value": "4.86 ± 0.19^∗ log (Geq/mL)"}, {"measurement": "absolute abundance of P. gingivalis (Pg), mean ± SD log (Geq/mL)", "setting": "P. gingivalis; substrate 1% (w/v)", "value": "6.93 ± 0.10 log (Geq/mL)"}, {"measurement": "absolute abundance of P. gingivalis (Pg), mean ± SD log (Geq/mL)", "setting": "P. gingivalis; substrate 1 M in PBS, n = 3", "value": "4.26 ± 0.51^∗ log (Geq/mL)"}, {"measurement": "absolute abundance of P. intermedia (Pi), mean ± SD log (Geq/mL)", "setting": "P. intermedia; substrate 1% (w/v)", "value": "8.13 ± 0.25 log (Geq/mL)"}, {"measurement": "absolute abundance of P. intermedia (Pi), mean ± SD log (Geq/mL)", "setting": "P. intermedia; substrate 1 M in PBS, n = 3", "value": "4.05 ± 0.61^∗ log (Geq/mL)"}, {"measurement": "absolute abundance of S. gordonii, mean ± SD log (Geq/mL)", "setting": "S. gordonii; substrate 1% (w/v)", "value": "8.4 ± 0.11 log (Geq/mL)"}, {"measurement": "absolute abundance of S. gordonii, mean ± SD log (Geq/mL)", "setting": "S. gordonii; substrate 1 M in PBS, n = 3", "value": "9.31 ± 0.41 log (Geq/mL)"}, {"measurement": "absolute abundance of S. mitis, mean ± SD log (Geq/mL)", "setting": "S. mitis; substrate 1% (w/v)", "value": "2.65 ± 0.00 log (Geq/mL)"}, {"measurement": "absolute abundance of S. mitis, mean ± SD log (Geq/mL)", "setting": "S. mitis; substrate 1 M in PBS, n = 3", "value": "3.17 ± 0.75 log (Geq/mL)"}, {"measurement": "absolute abundance of S. oralis, mean ± SD log (Geq/mL)", "setting": "S. oralis; substrate 1% (w/v)", "value": "6.6 ± 0.17 log (Geq/mL)"}, {"measurement": "absolute abundance of S. oralis, mean ± SD log (Geq/mL)", "setting": "S. oralis; substrate 1 M in PBS, n = 3", "value": "7.45 ± 0.46 log (Geq/mL)"}, {"measurement": "absolute abundance of S. sobrinus, mean ± SD log (Geq/mL)", "setting": "S. sobrinus; substrate 1% (w/v)", "value": "5.27 ± 0.24 log (Geq/mL)"}, {"measurement": "absolute abundance of S. sobrinus, mean ± SD log (Geq/mL)", "setting": "S. sobrinus; substrate 1 M in PBS, n = 3", "value": "7.82 ± 0.11^∗ log (Geq/mL)"}, {"measurement": "relative proportion of beneficial or commensal species in biofilm", "setting": "[1]; Table 1a, substrate 1 M", "value": "92.72 (+/- 4.39)^∗ % (Geq/mL)"}, {"measurement": "relative proportion of cariogenic pathogens in biofilm", "setting": "[1]; Table 1a, substrate 1 M", "value": "5.82 (+/- 3.94) % (Geq/mL)"}, {"measurement": "relative proportion of periodontal pathogens in biofilm", "setting": "[1]; Table 1a, substrate 1 M", "value": "1.46 (+/- 0.64)^∗ % (Geq/mL)"}, {"measurement": "relative proportion of beneficial or commensal species in biofilm", "setting": "[1]; [3]", "value": "92.72±4.39 % (Geq/mL)"}, {"measurement": "relative proportion of cariogenic pathogens in biofilm", "setting": "[1]; [3]", "value": "5.82±3.94 % (Geq/mL)"}, {"measurement": "relative proportion of periodontal pathogens in biofilm", "setting": "[1]; [3]", "value": "1.46±0.64 % (Geq/mL)"}, {"measurement": "relative proportion of beneficials/commensals in biofilm", "setting": "[1]; [4]", "value": "64.14 (+/- 9.81) % (Geq/mL)"}, {"measurement": "relative proportion of cariogenic pathogens in biofilm", "setting": "[1]; [4]", "value": "0.21 (+/- 0.08) % (Geq/mL)"}, {"measurement": "relative proportion of periodontal pathogens in biofilm", "setting": "[1]; [4]", "value": "35.65 (+/- 9.88) % (Geq/mL)"}, {"measurement": "fold change in DnaJ expression, geometric mean (95% C.I.)", "setting": "[2]; [5]", "value": "0.29 (0.18-0.47)^∗ fold"}, {"measurement": "fold change in DnaK expression, geometric mean (95% C.I.)", "setting": "[2]; [5]", "value": "1.16 (0.55-2.44) fold"}, {"measurement": "fold change in ECF expression, geometric mean (95% C.I.)", "setting": "[2]; [5]", "value": "0.26 (0.12-0.58)^∗ fold"}, {"measurement": "fold change in GroES expression, geometric mean (95% C.I.)", "setting": "[2]; [5]", "value": "0.91 (0.41-2.03) fold"}, {"measurement": "fold change in HtpG expression, geometric mean (95% C.I.)", "setting": "[2]; [5]", "value": "0.40 (0.15-1.07)^∗ fold"}, {"measurement": "fold change in KpsD expression, geometric mean (95% C.I.)", "setting": "[2]; [5]", "value": "0.72 (0.39-1.35) fold"}, {"measurement": "fold change in adpc expression, geometric mean (95% C.I.)", "setting": "[2]; [5]", "value": "0.41 (0.30-0.55) fold"}, {"measurement": "fold change in clpB expression, geometric mean (95% C.I.)", "setting": "[2]; [5]", "value": "0.85 (0.23-3.13) fold"}, {"measurement": "fold change in inpA expression, geometric mean (95% C.I.)", "setting": "[2]; [5]", "value": "0.52 (0.41-0.66)^∗ fold"}, {"measurement": "fold change in phg expression, geometric mean (95% C.I.)", "setting": "[2]; [5]", "value": "0.39 (0.19-0.77)^∗ fold"}, {"measurement": "fold change in DnaJ expression, geometric mean (95% C.I.)", "setting": "[2]; [6]", "value": "0.25 (0.05-1.25)^∗ fold"}, {"measurement": "fold change in DnaK expression, geometric mean (95% C.I.)", "setting": "[2]; [6]", "value": "0.34 (0.28-0.42)^∗ fold"}, {"measurement": "fold change in ECF expression, geometric mean (95% C.I.)", "setting": "[2]; [6]", "value": "1.72 (0.56-5.25) fold"}, {"measurement": "fold change in GroES expression, geometric mean (95% C.I.)", "setting": "[2]; [6]", "value": "0.29 (0.09-0.91)^∗ fold"}, {"measurement": "fold change in HtpG expression, geometric mean (95% C.I.)", "setting": "[2]; [6]", "value": "0.19 (0.12-0.31)^∗ fold"}, {"measurement": "fold change in KpsD expression, geometric mean (95% C.I.)", "setting": "[2]; [6]", "value": "0.62 (0.21-1.87) fold"}, {"measurement": "fold change in adpc expression, geometric mean (95% C.I.)", "setting": "[2]; [6]", "value": "0.30 (0.23-0.39)^∗ fold"}, {"measurement": "fold change in clpB expression, geometric mean (95% C.I.)", "setting": "[2]; [6]", "value": "0.38 (0.08-1.75)^∗ fold"}, {"measurement": "fold change in inpA expression, geometric mean (95% C.I.)", "setting": "[2]; [6]", "value": "0.47 (0.27-0.82)^∗ fold"}, {"measurement": "fold change in phg expression, geometric mean (95% C.I.)", "setting": "[2]; [6]", "value": "0.12 (0.08-0.18)^∗ fold"}]}]}
